Publication PMC3842960, “Natural Stilbenoids Isolated from Grapevine Exhibiting Inhibitory Effects against HIV-1 Integrase and Eukaryote MOS1 Transposase In Vitro Activities” (PLoS ONE, 2013)

Assays:
[1] = target: T1, Mos1 transposase (MOS1) (Drosophila mauritiana, UniProt Q7JQ07); assay: MOS1 in vitro excision assay; type: biochemical, D. mauritiana; conditions: for inhibition at 25 µM: DMSO control as reference, read-out: inhibition of in vitro excision reaction; for IC50: concentration range, sigmoid dose-response fit
T1 construct: involving the full-length Mos1 transposase (MOS1) was recently solved; made in house
Experimental: (§1) Basic excision reaction mixtures contained 10 mM Tris-HCl (pH 9), 50 mM NaCl, 20 mM MgCl2, 0.5 mM EDTA, 0.5 mM DTT, 100 ng BSA, 600 ng of super-coiled pBC-3T3, and 80 nM MBP-MOS1 (added last) in a volume of 20 µl. Molecules (25 or 10 µM, as specified) or DMSO (2%) were added to the reaction mixtures before the transposase. The reactions were allowed to proceed at 30°C for 30 min before 2 µl of stop solution (loading buffer) were added. The reaction mixtures were then incubated at 65°C for 10 min. Each reaction was analysed by overnight electrophoresis at 2.7 V/cm on a TAE-buffered 1% agarose gel with ethidium bromide (0.3 mg/ml). After electrophoresis, the gel was photographed on a transilluminator. ImageGauge 4.22 software (Fujifilm) was used to quantify the bands. Each condition was tested at least twice.
The ability of the selected molecules to inhibit excision was tested in vitro using the pBC-3T3 plasmid as the transposon donor. MOS1 triggers the excision of the pseudo-Mos1 from the plasmid producing two linear DNA fragments, the transposon and the plasmid backbone, together with intermediate products (open circle plasmids which contained single strand nicks and linear plasmids which contained a double strand nick at one ITR). After excision, the transposon could be reintegrated, making it difficult to detect in electrophoresis. The activity of the molecules was measured by quantifying the plasmid backbone, the end product of the reaction. The assays were performed with final concentrations of 25 and 10 µM molecules. Controls correspond to assays performed without molecule but with DMSO. […] Reactions were performed at least twice for each selected molecules (leachianol G, leachianol F, quadrangularin A, hopeaphenol, vitisin B and pallidol) and the excision activity is reported in figure 7B . […] The six selected molecules were then tested for the integration step of Mos1 transposition.

[2] = target: T2, MOS1 (Drosophila mauritiana, UniProt Q7JQ07); assay: MOS1 in vitro activities, overall statements of the discussion; type: biochemical, D. mauritiana; conditions: for activity on MOS1: in vitro assays of MOS1 activities, discussion
T2 construct: involving the full-length Mos1 transposase (MOS1) was recently solved; made in house
Experimental: In vitro transposition reactions were performed using pBC-3T3 as both the donor DNA and the target, as previously described. Briefly, the basic transposition reaction mixtures contained 10 mM Tris-HCl (pH 9), 50 mM NaCl, 20 mM MgCl2, 0.5 mM EDTA, 5% glycerol, 5 ng/ml BSA, 600 ng pBC-3T3, and 80 nM purified MBP-MOS1 (added last) in a volume of 20 µl. Inhibitors (25 or 10 µM, as specified) or DMSO (2%) were added to the reaction mixtures before the transposase. The reactions were allowed to proceed for 30 min at 30°C. After phenol-chloroform extraction and ethanol precipitation, 10% of the reaction mixture was transformed in electro-competent JM109 E. coli (2 mm cuvette, 1.5 kV in a MicroPulser™BioRad). Appropriate dilutions of each reaction mixture were plated on LB-tetracycline (12.5 µg/ml) agar and LB-chloramphenicol (80 µg/ml) agar to score the transposition rate. The transposition rate was the number of Tet^R colonies divided by the number of Chloram^R plus Tet^R colonies. Each condition was done at least three times in independent experiments.
as §1
These assays were performed using pre-cleaved 3′ITRs (PC-ITR), i.e. ITRs in the configuration expected after excision. Double-strand ITRs were obtained by annealing equimolar amounts of 70-NTS-PN (5′[…]3′) and 70-TS-PC (5′[…]3′) single-strand oligonucleotides. Prior to annealing, the transferred strand (70-TS-PC) was 5′-end labelled using T4 polynucleotide kinase (Promega) and γ-^32P-ATP following the manufacturer's instructions. Oligonucleotides were provided by Eurofins MWG Biotech (Germany) or Eurogentec (Belgium). Reaction mixtures containing 10 mM Tris-HCl (pH 9), 50 mM NaCl, 1 mM DTT, 5% glycerol, 100 ng BSA, 100 nM of labelled PC-ITR and 100 nM MBP-MOS1 in a final volume of 20 µl were incubated at 30°C for 30 min. The pBC plasmid (which contained the cat gene, a hot-spot for Mos1 insertion) was then added to 30 ng/µL along with 5 mM MgCl2. Molecules (25 or 10 µM, as specified) or DMSO (2%) were added to the reaction mixtures along with the target DNA to estimate their effect on integration. Reactions were carried out for 3 hours at 30°C. 0.1 mg/ml proteinase K and 0.1% SDS were added to stop the reaction. DNA products were purified by phenol-chloroform extraction and ethanol precipitated using standard techniques. DNA products were resuspended in DNA loading buffer, then separated onto a 1% agarose gel in 1X TAE (Tris Acetate EDTA) buffer. The gel was dried onto a nitrocellulose membrane (Hybond N+, GE Healthcare), scanned using a Storm, and analysed with ImageQuant software. Signals were quantified using ImageQuant software. Efficiency of integration was calculated as the intensity of the integration signal divided by the intensity of free target signal plus integration signal. Each condition was tested at least twice.
All molecules were also tested in in vitro assays reproducing integration and excision reactions catalysed by MOS1. […] In contrast, E-resveratrol and E-ε-viniferin glucoside, which act more specifically on HIV-1 3′processing reaction, and E-piceid and E-pterostilbene, which is more efficient on the integration reaction, were not active on MOS1.

T1 sequence (Q7JQ07 whole entry): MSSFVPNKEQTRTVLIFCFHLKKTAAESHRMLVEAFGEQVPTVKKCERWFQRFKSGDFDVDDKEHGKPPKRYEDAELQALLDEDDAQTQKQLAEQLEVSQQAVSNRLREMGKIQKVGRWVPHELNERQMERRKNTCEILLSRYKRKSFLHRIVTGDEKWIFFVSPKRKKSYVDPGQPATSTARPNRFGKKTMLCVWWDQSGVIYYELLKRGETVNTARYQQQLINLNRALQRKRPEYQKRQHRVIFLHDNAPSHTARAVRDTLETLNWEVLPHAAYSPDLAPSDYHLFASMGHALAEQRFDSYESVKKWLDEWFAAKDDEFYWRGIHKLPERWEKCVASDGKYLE
T2 sequence (Q7JQ07 whole entry): as above

Row | SMILES | inhibition at 25 µM [1] | IC50 [1] | activity on MOS1 [2] | IC50 ([2]; summary of the discussion)
1 | Oc1ccc([C@@H]2c3c(O)cc(O)cc3[C@H]3c4c(cc(O)cc4C2C2c4cc(O)cc5c4[C@H](c4cc(O)cc(O)c4[C@H]2c2ccc(O)cc2)[C@@H](c2ccc(O)cc2)O5)O[C@@H]3c2ccc(O)cc2)cc1 (stereo partly shown) [hopeaphenol] | > 50% | 8.5 µM | selectively active on MOS1 | 6 to 8 µM
2 | Oc1ccc([C@@H]2c3c(O)cc(O)cc3[C@H]3[C@H](c4ccc(O)cc4)c4c(O)cc(O)cc4[C@@H]23)cc1 [pallidol] | > 50% | 8 µM | also active against MOS1 activities | 
